Results from patent US20240285780A1 (priority 2020, published 2024).
Where “and” joins values, the source holds several entries; their conditions need not be identical. Equal entries are not always repeated. Where a SMILES comes first, the peptide text is derived from it. [ ]: non-standard residue; d: D form. The star is where a group is joined. Trolox = Cc1c(C)c2c(c(C)c1O)CCC(C)(C(=O)*)O2; Cha = N[CH](CC1CCCCC1)C(=O)O

Columns and labels:
[1] = tested on: neuroblastoma-derived cell line (SH-SY5Y); type: cell-based
[2] = tested on: Sprague-Dawley rats; conditions: rat, in vivo
[3] = tested on: collagen type I alpha 1 (Col1a1); type: cell-based, mouse
[4] = tested on: Fibronectin; type: cell-based, mouse
[5] = tested on: Elastin; type: cell-based, mouse

CCC(C)C(NC(=O)C(CC(C)C)NC(=O)C(CC1CCCCC1)NC(=O)C(CCCCN)NC(=O)C1(C)CCc2c(C)c(O)c(C)c(C)c2O1)C(=O)NC(CCCCN)C(=O)O (stereo not drawn) [trolox-peptide conjugate] (Trolox-K[Cha]LIK-OH; configuration not given here)
release of acetylcholine [1]: significantly inhibited | DAS Score [2]: 4 and 2 and 3 | duration of the muscle relaxation effect [2]: lasted longer | expression level of collagen (Col1a1) [3]: significantly increased | expression level of fibronectin [4]: significantly increased | expression level of elastin [5]: significantly increased
